Results as given in ChEMBL document CHEMBL5512598, “Current advances and development strategies of orally bioavailable PROTACs” (Eur J Med Chem, 2023).
Values belong to the compound of their own block, whether it stands above or below them.

Legend:
[1] = target: von Hippel-Lindau disease tumor suppressor/Polycomb protein EED (Homo sapiens, UniProt O75530+P40337); test: PROTAC activity at VHL/EED in human DB cells assessed as degradation of EED protein expression incubated for 24 hrs by Western blotting analysis; assay type: cell-based
von Hippel-Lindau disease tumor suppressor/Polycomb protein EED, sequence (O75530 whole entry): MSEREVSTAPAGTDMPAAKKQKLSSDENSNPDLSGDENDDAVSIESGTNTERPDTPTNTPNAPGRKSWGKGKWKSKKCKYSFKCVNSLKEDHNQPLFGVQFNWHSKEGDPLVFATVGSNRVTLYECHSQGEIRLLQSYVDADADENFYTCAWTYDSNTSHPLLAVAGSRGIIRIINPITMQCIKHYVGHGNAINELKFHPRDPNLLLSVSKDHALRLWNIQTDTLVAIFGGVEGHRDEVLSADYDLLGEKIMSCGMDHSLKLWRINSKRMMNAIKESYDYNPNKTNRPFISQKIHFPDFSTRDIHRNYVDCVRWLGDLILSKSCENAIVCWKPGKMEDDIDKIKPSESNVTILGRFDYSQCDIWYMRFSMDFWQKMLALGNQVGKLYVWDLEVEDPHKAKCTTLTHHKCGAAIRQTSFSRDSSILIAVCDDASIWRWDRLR
von Hippel-Lindau disease tumor suppressor/Polycomb protein EED, sequence (P40337 whole entry): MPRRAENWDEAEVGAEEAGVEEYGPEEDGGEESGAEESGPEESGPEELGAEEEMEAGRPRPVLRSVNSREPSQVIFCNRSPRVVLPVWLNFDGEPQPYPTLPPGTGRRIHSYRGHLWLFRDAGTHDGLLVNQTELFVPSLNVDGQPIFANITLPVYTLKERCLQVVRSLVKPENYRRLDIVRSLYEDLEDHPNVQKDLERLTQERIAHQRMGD

[2] = target: von Hippel-Lindau disease tumor suppressor/Histone-lysine N-methyltransferase EZH2 (Homo sapiens, UniProt Q15910+P40337, Y641N); test: PROTAC activity against VHL/EZH2 Y641N mutant in human DB cells assessed as degradation of EZH2 protein expression incubated for 24 hrs by Western blot analysis; assay type: cell-based
von Hippel-Lindau disease tumor suppressor/Histone-lysine N-methyltransferase EZH2 (Homo sapiens, UniProt Q15910+P40337, Y641N), sequence (P40337 whole entry, stated change not applied): as the sequence (P40337 whole entry) above
von Hippel-Lindau disease tumor suppressor/Histone-lysine N-methyltransferase EZH2 (Homo sapiens, UniProt Q15910+P40337, Y641N), sequence (Q15910 whole entry Y641N, stated change not applied): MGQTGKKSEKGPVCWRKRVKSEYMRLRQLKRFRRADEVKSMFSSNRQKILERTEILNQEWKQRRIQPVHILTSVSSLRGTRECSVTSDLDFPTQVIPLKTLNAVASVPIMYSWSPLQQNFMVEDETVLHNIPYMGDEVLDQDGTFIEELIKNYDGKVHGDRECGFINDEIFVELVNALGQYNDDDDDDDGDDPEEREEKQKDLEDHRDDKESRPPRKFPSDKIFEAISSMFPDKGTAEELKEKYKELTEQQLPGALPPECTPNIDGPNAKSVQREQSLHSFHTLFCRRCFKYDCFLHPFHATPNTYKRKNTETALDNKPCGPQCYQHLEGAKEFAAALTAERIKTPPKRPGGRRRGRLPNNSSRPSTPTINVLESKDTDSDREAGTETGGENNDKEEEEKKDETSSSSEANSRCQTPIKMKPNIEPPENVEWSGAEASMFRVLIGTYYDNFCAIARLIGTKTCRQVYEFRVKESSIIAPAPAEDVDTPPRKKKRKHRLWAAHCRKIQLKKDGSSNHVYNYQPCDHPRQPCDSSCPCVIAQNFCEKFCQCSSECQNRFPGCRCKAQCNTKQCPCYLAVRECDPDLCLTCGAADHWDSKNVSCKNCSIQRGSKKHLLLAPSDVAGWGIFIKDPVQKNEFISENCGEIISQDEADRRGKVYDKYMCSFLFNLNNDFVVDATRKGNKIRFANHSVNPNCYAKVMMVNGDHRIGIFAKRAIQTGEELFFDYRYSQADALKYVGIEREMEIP

[3] = target: von Hippel-Lindau disease tumor suppressor/Histone-lysine N-methyltransferase EZH2 (Homo sapiens, UniProt Q15910+P40337); test: PROTAC activity against VHL/wild type EZH2 in human DB cells assessed as degradation of EZH2 protein expression incubated for 24 hrs by Western blot analysis; assay type: cell-based
von Hippel-Lindau disease tumor suppressor/Histone-lysine N-methyltransferase EZH2 (Homo sapiens, UniProt Q15910+P40337), sequence (Q15910 whole entry): as the sequence (Q15910 whole entry Y641N, stated change not applied) above, with N641Y counted along it
von Hippel-Lindau disease tumor suppressor/Histone-lysine N-methyltransferase EZH2 (Homo sapiens, UniProt Q15910+P40337), sequence (P40337 whole entry): as the sequence (P40337 whole entry) above

[4] = Half life in Sprague-Dawley rat at 40 mg/kg, po measured after 24 hrs by LC-MS/MS analysis; assay type: ADME, organism-based; details: in vivo
[5] = AUC (0 to t) in Sprague-Dawley rat at 40 mg/kg, IG measured up to 24 hrs by LC-MS/MS analysis; assay type: ADME, organism-based; details: in vivo, po
[6] = Oral bioavailability in Sprague-Dawley rat at 40 mg/kg measured up to 24 hrs by LC-MS analysis; assay type: ADME, organism-based; details: in vivo
[7] = Tmax in Sprague-Dawley rat at 40 mg/kg, IG measured up to 24 hrs by LC-MS/MS analysis; assay type: ADME, organism-based; details: in vivo, po
[8] = Cmax in Sprague-Dawley rat at 40 mg/kg, po measured after 24 hrs by LC-MS/MS analysis; assay type: ADME, organism-based; details: in vivo
[9] = target: von Hippel-Lindau disease tumor suppressor/Tyrosine-protein kinase BTK (Homo sapiens, UniProt Q06187+P40337, C481S); test: PROTAC activity at VHL/BTK C481S mutant in human TMD8 cells assessed as induction of BTK degradation incubated for 24 hrs by immunoblotting analysis; assay type: cell-based
von Hippel-Lindau disease tumor suppressor/Tyrosine-protein kinase BTK, sequence (P40337 whole entry, stated change not applied): as the sequence (P40337 whole entry) above
von Hippel-Lindau disease tumor suppressor/Tyrosine-protein kinase BTK, sequence (Q06187 2-659 C481S limits assumed, stated change not applied): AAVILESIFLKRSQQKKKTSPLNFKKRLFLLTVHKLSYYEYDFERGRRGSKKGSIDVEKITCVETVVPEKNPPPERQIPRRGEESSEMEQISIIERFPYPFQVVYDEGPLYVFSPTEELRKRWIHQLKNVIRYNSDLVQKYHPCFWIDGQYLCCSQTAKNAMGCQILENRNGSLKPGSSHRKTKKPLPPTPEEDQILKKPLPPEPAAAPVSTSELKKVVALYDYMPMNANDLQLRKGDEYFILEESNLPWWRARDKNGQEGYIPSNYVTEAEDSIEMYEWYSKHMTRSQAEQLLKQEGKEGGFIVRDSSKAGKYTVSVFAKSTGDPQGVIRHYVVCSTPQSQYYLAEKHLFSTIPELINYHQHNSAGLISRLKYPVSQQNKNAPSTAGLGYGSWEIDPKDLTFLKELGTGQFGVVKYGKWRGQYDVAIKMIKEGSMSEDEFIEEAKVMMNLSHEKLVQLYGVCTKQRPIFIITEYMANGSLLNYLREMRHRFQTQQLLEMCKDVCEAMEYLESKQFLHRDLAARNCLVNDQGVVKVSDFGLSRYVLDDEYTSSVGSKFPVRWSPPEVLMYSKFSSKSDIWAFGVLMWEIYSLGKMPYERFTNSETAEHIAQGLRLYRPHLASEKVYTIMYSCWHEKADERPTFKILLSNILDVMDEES

[10] = test system: von Hippel-Lindau disease tumor suppressor/Tyrosine-protein kinase BTK (Homo sapiens), Q06187+P40337 [C481S]; test: PROTAC activity at VHL/BTK C481S mutant in human TMD8 cells assessed as maximum degradation of protein relative to control; assay type: cell-based
[11] = AUC in mouse at 30 mg/kg, po; assay type: ADME, organism-based; details: in vivo
[12] = Half life in mouse at 30 mg/kg, po measured upto 24 hrs by LC-MS/MS analysis; assay type: ADME, organism-based; details: in vivo
[13] = target: von Hippel-Lindau disease tumor suppressor/Bromodomain-containing protein 9 (Homo sapiens, UniProt Q9H8M2+P40337); test: PROTAC activity at VHL/BRD9 in human HeLa cells assessed as induction of protein degradation […]; assay type: cell-based
von Hippel-Lindau disease tumor suppressor/Bromodomain-containing protein 9, sequence (Q9H8M2 whole entry): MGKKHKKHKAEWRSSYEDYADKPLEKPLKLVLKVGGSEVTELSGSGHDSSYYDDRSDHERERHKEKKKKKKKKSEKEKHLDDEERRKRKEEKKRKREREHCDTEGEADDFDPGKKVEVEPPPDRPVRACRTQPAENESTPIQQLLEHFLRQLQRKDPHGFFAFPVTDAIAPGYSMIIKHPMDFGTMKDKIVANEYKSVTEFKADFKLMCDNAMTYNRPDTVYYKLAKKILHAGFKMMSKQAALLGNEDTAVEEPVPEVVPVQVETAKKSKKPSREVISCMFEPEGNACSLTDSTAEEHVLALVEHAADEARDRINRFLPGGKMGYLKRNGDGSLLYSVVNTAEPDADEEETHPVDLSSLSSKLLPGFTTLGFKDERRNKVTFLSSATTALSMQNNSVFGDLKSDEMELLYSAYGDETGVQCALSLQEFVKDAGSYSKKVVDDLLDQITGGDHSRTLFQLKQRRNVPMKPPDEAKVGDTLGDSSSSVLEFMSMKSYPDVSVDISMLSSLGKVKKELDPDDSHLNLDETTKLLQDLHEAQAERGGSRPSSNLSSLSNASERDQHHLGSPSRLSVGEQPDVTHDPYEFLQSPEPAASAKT
von Hippel-Lindau disease tumor suppressor/Bromodomain-containing protein 9, sequence (P40337 whole entry): as the sequence (P40337 whole entry) above

[14] = Oral bioavailability in mouse; assay type: ADME, organism-based; details: in vivo
[15] = AUC (0 to t) in ICR mouse at 30 mg/kg, po measured upto 24 hrs by HPLC-MS/MS analysis; assay type: ADME, organism-based; details: in vivo
[16] = Oral availability in ICR mouse at 30 mg/kg by HPLC-MS/MS analysis; assay type: ADME, organism-based; details: in vivo
[17] = Cmax in CD-1 mouse plasma at 10 mg/kg, po by LC-MS/MS analysis; assay type: ADME, organism-based
[18] = AUC (0 to t) in CD-1 mouse at 10 mg/kg, po measured for 24 hrs by LC-MS/MS analysis; assay type: ADME, organism-based; details: in vivo
[19] = Half life in CD-1 mouse at 10 mg/kg, po measured for 24 hrs by LC-MS/MS analysis; assay type: ADME, organism-based; details: in vivo
[20] = target: Protein cereblon/Tyrosine-protein kinase BTK (Homo sapiens, UniProt Q06187+Q96SW2, C481S); test: PROTAC activity at CRBN/BTK in human TMD8 cells assessed as protein degradation; assay type: cell-based
Protein cereblon/Tyrosine-protein kinase BTK, sequence (Q06187 2-659 C481S limits assumed, stated change not applied): as the sequence (Q06187 2-659 C481S limits assumed, stated change not applied) above
Protein cereblon/Tyrosine-protein kinase BTK, sequence (Q96SW2 whole entry, stated change not applied): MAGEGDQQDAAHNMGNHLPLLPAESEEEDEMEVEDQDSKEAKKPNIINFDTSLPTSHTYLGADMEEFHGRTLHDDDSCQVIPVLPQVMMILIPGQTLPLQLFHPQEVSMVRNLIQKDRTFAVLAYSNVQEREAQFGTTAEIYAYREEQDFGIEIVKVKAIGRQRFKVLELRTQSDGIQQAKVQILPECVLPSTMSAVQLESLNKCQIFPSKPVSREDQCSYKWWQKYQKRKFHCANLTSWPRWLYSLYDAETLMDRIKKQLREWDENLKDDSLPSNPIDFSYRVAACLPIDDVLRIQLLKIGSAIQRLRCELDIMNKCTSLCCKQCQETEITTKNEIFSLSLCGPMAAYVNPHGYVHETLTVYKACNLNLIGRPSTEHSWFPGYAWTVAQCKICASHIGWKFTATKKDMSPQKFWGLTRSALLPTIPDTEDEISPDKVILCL

[21] = test system: Protein cereblon/Tyrosine-protein kinase BTK (Homo sapiens), Q06187+Q96SW2 [C481S]; test: PROTAC activity at CRBN/BTK in human TMD8 cells assessed as maximal protein degradation relative to control; assay type: cell-based

DC50 [13]: 5 nM | bioavailability [14]: < 1%
Compound: COc1cc(-c2cn(C)c(=O)c3[nH]ncc23)cc(OC)c1CN1CCN(C(=O)CN2CCC(c3ccc(NC4CCC(=O)NC4=O)cc3)CC2)CC1 (configuration not stated)

Cmax [17]: 3680 ng/mL | AUC(0-t) at 24 h [18]: 19700 ng·h/mL | half-life [19]: 2.08 h
Compound: COc1cc(N2CCC(N3CCN(CCC#Cc4cccc5c4CN(C4CCC(=O)NC4=O)C5=O)CC3)CC2)ccc1Nc1ncc(Cl)c(Nc2ccccc2P(C)(C)=O)n1 (configuration not stated)

DC50 [20]: 0.5 nM | Emax [21]: 96%
Compound: CN1CCN([C@@H]2CCCN(c3cnc(C(N)=O)c(Nc4ccc(C5CCN(C[C@@H]6CCN(c7ccc8c(c7)C(=O)N(C7CCC(=O)NC7=O)C8=O)C6)CC5)cc4)n3)C2)C1=O (some centres not stated)

The remaining lines, values behind:

Compound: Cc1ncsc1-c1ccc(CNC(=O)[C@@H]2C[C@@H](O)CN2C(=O)[C@@H](NC(=O)[C@H]2C[C@@H](NC(=O)c3ccc(-c4cnc(NCc5ccco5)n5cnnc45)cc3)C2)C(C)(C)C)cc1
DC50 [1]: 111 nM | DC50 [2]: 275 nM | DC50 [3]: 275 nM

Compound: N#Cc1cccc(-c2ccc(=O)n(Cc3cccc(-c4ncc(OCC5CCN(CC(=O)N6CCN(c7ccc8c(c7)C(=O)N(C7CCC(=O)NC7=O)C8=O)CC6)CC5)cn4)c3)n2)c1 (configuration not stated)
half-life [4]: 15.8 h | AUC(0-t) at 24 h [5]: 74.2 ng·h/mL | bioavailability [6]: 0.7% | Tmax [7]: 1.75 h | Cmax [8]: 8.47 ng/mL

Compound: CN1CCN([C@@H]2CCCN(c3cnc(C(N)=O)c(Nc4ccc(C5CCN(C(=O)CCOCCNc6cccc7c6C(=O)N(C6CCC(=O)NC6=O)C7=O)CC5)cc4)n3)C2)C1=O (some centres not stated)
DC50 [9]: 7 nM | Emax [10]: 86%

Compound: O=C1CC[C@H](N2Cc3cc(N4CCN(CC5CCN(c6ccc([C@@H]7c8ccc(O)cc8CC[C@@H]7c7ccccc7)cc6)CC5)CC4)ccc3C2=O)C(=O)N1 [VEPDEGESTRANT]
AUC [11]: 5720 ng·h/mL | half-life [12]: 28 h

Compound: Cc1ncsc1-c1ccc([C@H](CC[C@H](C)CCN2CCC(c3ccc4c(c3)n(C3CCCC3)c3nc(=O)c5c(Br)cccc5n43)CC2)NC(=O)[C@@H]2C[C@@H](O)CN2C(=O)[C@@H](NC(=O)C2(F)CC2)C(C)(C)C)cc1
AUC(0-t) at 24 h [15]: 50000 ng·h/mL | bioavailability [16]: 22%

Compound: Cc1ncsc1-c1ccc(CNC(=O)[C@@H]2C[C@@H](O)CN2C(=O)[C@@H](NC(=O)CCCNC(=O)c2ccc(-c3cnc(NCc4ccco4)n4cnnc34)cc2)C(C)(C)C)cc1
DC50 [2]: 670 nM
